Measurements published in BindingDB's records for patent US12435061 (Kamari Pharma, 2025).

Molecular target: T1, Transient receptor potential cation channel subfamily V member 3 (Homo sapiens, UniProt Q8NET8)
T1 sequence (Q8NET8 whole entry): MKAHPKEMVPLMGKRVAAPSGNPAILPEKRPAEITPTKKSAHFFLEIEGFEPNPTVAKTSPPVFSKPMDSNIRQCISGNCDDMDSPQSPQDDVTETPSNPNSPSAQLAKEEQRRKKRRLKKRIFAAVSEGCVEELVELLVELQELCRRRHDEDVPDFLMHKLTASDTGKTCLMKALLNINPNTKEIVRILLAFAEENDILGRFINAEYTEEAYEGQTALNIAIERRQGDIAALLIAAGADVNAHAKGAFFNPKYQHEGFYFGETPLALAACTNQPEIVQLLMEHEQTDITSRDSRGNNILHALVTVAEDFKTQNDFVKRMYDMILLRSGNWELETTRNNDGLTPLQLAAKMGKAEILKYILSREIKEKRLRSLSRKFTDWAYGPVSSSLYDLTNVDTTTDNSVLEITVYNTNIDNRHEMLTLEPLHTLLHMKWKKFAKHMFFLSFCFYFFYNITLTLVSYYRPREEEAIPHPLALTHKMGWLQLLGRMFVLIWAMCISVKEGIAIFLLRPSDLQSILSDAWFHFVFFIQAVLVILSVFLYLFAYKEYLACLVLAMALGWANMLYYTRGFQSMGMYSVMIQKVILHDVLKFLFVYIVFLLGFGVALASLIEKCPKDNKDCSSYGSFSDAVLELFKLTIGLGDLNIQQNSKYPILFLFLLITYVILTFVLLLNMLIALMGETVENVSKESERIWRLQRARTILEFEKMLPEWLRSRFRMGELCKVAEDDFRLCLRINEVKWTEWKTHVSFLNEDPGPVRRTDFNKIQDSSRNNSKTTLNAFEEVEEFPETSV
Test: Patch Clamp Experiments
Experimental: TRPV3 cells were induced 20-48 hours, removed from growth plates, and replated at low density (to attain good single-cell physical separation) on glass coverslips for measurement. In some cases, cells were grown in low density overnight on glass coverslips. Patch clamp recordings were made in the whole-cell mode with a holding potential of −40 mV. Every 5 seconds, a voltage ramp was applied from −120 to +100 mV, 400 ms in duration. Currents elicited were quantified at −80 mV and +80 mV. […] External solution was Ringer's solution described above.

SMILES | IC50
CCc1ccccc1Oc1ccc(N2CC[C@H](Oc3ccc(C(F)(F)F)cn3)C2)c(CO)n1 [US12435061, Compound 1-212] | > 3.2 µM
O=[N+](O)c1cc(-c2ccccc2)ccc1N1CC[C@H](Oc2ccc3cc(Cl)ccc3n2)C1 [US12435061, Compound 1-70] | > 3.2 µM
